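Step 1: Grow cells in 96-well plates. Step 2: Expose to compound for 48 hours at 5 concentrations. Step 3: Interpolate endpoints linearly; if unreached, use highest concentration. Abbreviation: GI50, concentration required for 50% inhibition of growth. Definition used: TGI = concentration required for complete inhibition of growth.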
Legend:
Assay in all cases: inhibition of tumour cell growth, NCI panel, 48 h
BT-549 breast = test system: BT-549 breast
SNB-75 CNS = test system: SNB-75 CNS
CCRF-CEM leukemia = test system: CCRF-CEM leukemia
SK-MEL-2 melanoma = test system: SK-MEL-2 melanoma
SF-268 CNS = test system: SF-268 CNS
UACC-257 melanoma = test system: UACC-257 melanoma
LOX IMVI melanoma = test system: LOX IMVI melanoma
SN12C renal = test system: SN12C renal
A498 renal = test system: A498 renal
HL-60(TB) leukemia = test system: HL-60(TB) leukemia
EKVX NSCLC = test system: EKVX NSCLC
786-0 renal = test system: 786-0 renal
K-562 leukemia = test system: K-562 leukemia
PC-3 prostate = test system: PC-3 prostate
RXF 393 renal = test system: RXF 393 renal
MALME-3M melanoma = test system: MALME-3M melanoma
MOLT-4 leukemia = test system: MOLT-4 leukemia
COLO 205 colon = test system: COLO 205 colon
HCT-15 colon = test system: HCT-15 colon
M14 melanoma = test system: M14 melanoma
SK-MEL-28 melanoma = test system: SK-MEL-28 melanoma
U251 CNS = test system: U251 CNS
SNB-19 CNS = test system: SNB-19 CNS
OVCAR-3 ovarian = test system: OVCAR-3 ovarian
SR leukemia = test system: SR leukemia
SF-295 CNS = test system: SF-295 CNS
HCC-2998 colon = test system: HCC-2998 colon
OVCAR-4 ovarian = test system: OVCAR-4 ovarian
MDA-MB-435 = test system: MDA-MB-435
OVCAR-5 ovarian = test system: OVCAR-5 ovarian
RPMI-8226 leukemia = test system: RPMI-8226 leukemia
OVCAR-8 ovarian = test system: OVCAR-8 ovarian
CAKI-1 renal = test system: CAKI-1 renal
A549 NSCLC = test system: A549 NSCLC
ACHN renal = test system: ACHN renal
HS 578T breast = test system: HS 578T breast
DU-145 prostate = test system: DU-145 prostate
MDA-MB-231 breast = test system: MDA-MB-231 breast
SK-MEL-5 melanoma = test system: SK-MEL-5 melanoma
HT29 colon = test system: HT29 colon
NCI-H226 lung = test system: NCI-H226 lung
UO-31 renal = test system: UO-31 renal
MCF7 breast = test system: MCF7 breast
IGROV1 ovarian = test system: IGROV1 ovarian
HOP-92 NSCLC = test system: HOP-92 NSCLC
SW-620 colon = test system: SW-620 colon
KM12 colon = test system: KM12 colon
NCI-H460 lung = test system: NCI-H460 lung
TK-10 renal = test system: TK-10 renal
SK-OV-3 ovarian = test system: SK-OV-3 ovarian
HCT-116 colon = test system: HCT-116 colon
NCI-H522 lung = test system: NCI-H522 lung
SF-539 CNS = test system: SF-539 CNS
T-47D breast = test system: T-47D breast
HOP-62 NSCLC = test system: HOP-62 NSCLC
NCI/ADR-RES ovarian = test system: NCI/ADR-RES ovarian
NCI-H23 lung = test system: NCI-H23 lung

Compound COc1ccc([C@@H](O)c2cc(-c3ncnc4cc(N5CCOCC5)ccc34)c(F)cc2Cl)nn1 has a GI50 (BT-549 breast) of 1.44 µM, a TGI (BT-549 breast) of 20.3 µM and a GI50 (SNB-75 CNS) of 0.371 µM. The TGI (SNB-75 CNS) was 11.4 µM, the GI50 (CCRF-CEM leukemia) was 3.5 µM and the TGI (CCRF-CEM leukemia) was 26.7 µM. The GI50 (SK-MEL-2 melanoma) was 7.37 µM, the TGI (SK-MEL-2 melanoma) was 25.3 µM and the GI50 (SF-268 CNS) was 5.99 µM. For the same compound, the TGI (SF-268 CNS) was > 100 µM, the GI50 (UACC-257 melanoma) was 1.99 µM and the TGI (UACC-257 melanoma) was 30 µM. It also gave a GI50 (LOX IMVI melanoma) of 2.84 µM, a TGI (LOX IMVI melanoma) of 24.8 µM and a GI50 (SN12C renal) of 2.45 µM. For the same compound, the TGI (SN12C renal) was > 100 µM, the GI50 (A498 renal) was 0.228 µM and the TGI (A498 renal) was 0.943 µM. It also gave a GI50 (HL-60(TB) leukemia) of 0.36 µM, a TGI (HL-60(TB) leukemia) of 17.7 µM and a GI50 (EKVX NSCLC) of 5.35 µM. For the same compound, the TGI (EKVX NSCLC) was 42.9 µM, the GI50 (786-0 renal) was 1.1 µM and the TGI (786-0 renal) was 25.3 µM. For the same compound, the GI50 (K-562 leukemia) was 3.78 µM, the TGI (K-562 leukemia) was > 100 µM and the GI50 (PC-3 prostate) was 0.865 µM. It also gave a TGI (PC-3 prostate) of 30.9 µM, a GI50 (RXF 393 renal) of 0.678 µM and a TGI (RXF 393 renal) of 11.6 µM. It also gave a GI50 (MALME-3M melanoma) of 6.4 µM, a TGI (MALME-3M melanoma) of 55.8 µM and a GI50 (MOLT-4 leukemia) of 1.08 µM. For the same compound, the TGI (MOLT-4 leukemia) was 41.1 µM, the GI50 (COLO 205 colon) was 2.85 µM and the TGI (COLO 205 colon) was 16.5 µM. It also gave a GI50 (HCT-15 colon) of 3.08 µM, a TGI (HCT-15 colon) of 23.2 µM and a GI50 (M14 melanoma) of 4.91 µM. The TGI (M14 melanoma) was 28.5 µM, the GI50 (SK-MEL-28 melanoma) was 2.07 µM and the TGI (SK-MEL-28 melanoma) was 38.1 µM. For the same compound, the GI50 (U251 CNS) was 6.22 µM, the TGI (U251 CNS) was 53.8 µM and the GI50 (SNB-19 CNS) was 10.8 µM. For the same compound, the TGI (SNB-19 CNS) was > 100 µM, the GI50 (OVCAR-3 ovarian) was 1.41 µM and the TGI (OVCAR-3 ovarian) was 20.3 µM. It also gave a GI50 (SR leukemia) of 7.06 µM, a TGI (SR leukemia) of 34.6 µM and a GI50 (SF-295 CNS) of 1.48 µM. For the same compound, the TGI (SF-295 CNS) was 25.8 µM, the GI50 (HCC-2998 colon) was 2.85 µM and the TGI (HCC-2998 colon) was 18.7 µM. For the same compound, the GI50 (OVCAR-4 ovarian) was 6.12 µM, the TGI (OVCAR-4 ovarian) was > 100 µM and the GI50 (MDA-MB-435) was 4.18 µM. The TGI (MDA-MB-435) was 37.4 µM, the GI50 (OVCAR-5 ovarian) was 7.2 µM and the TGI (OVCAR-5 ovarian) was > 100 µM. It also gave a GI50 (RPMI-8226 leukemia) of 3.58 µM, a TGI (RPMI-8226 leukemia) of 22.4 µM and a GI50 (OVCAR-8 ovarian) of 5.92 µM. The TGI (OVCAR-8 ovarian) was 78.4 µM, the GI50 (CAKI-1 renal) was 1.99 µM and the TGI (CAKI-1 renal) was > 100 µM. For the same compound, the GI50 (A549 NSCLC) was 2.77 µM, the TGI (A549 NSCLC) was 21 µM and the GI50 (ACHN renal) was 2.53 µM. The TGI (ACHN renal) was 91 µM, the GI50 (HS 578T breast) was 0.75 µM and the TGI (HS 578T breast) was 15.3 µM. For the same compound, the GI50 (DU-145 prostate) was 3.89 µM, the TGI (DU-145 prostate) was > 100 µM and the GI50 (MDA-MB-231 breast) was 4.96 µM. For the same compound, the TGI (MDA-MB-231 breast) was > 100 µM, the GI50 (SK-MEL-5 melanoma) was 1.99 µM and the TGI (SK-MEL-5 melanoma) was 8.1 µM. For the same compound, the GI50 (HT29 colon) was 1.97 µM, the TGI (HT29 colon) was 20.9 µM and the GI50 (NCI-H226 lung) was 3.82 µM. It also gave a TGI (NCI-H226 lung) of 60.4 µM, a GI50 (UO-31 renal) of 0.646 µM and a TGI (UO-31 renal) of 23 µM. It also gave a GI50 (MCF7 breast) of 0.592 µM, a TGI (MCF7 breast) of 15.7 µM and a GI50 (IGROV1 ovarian) of 0.469 µM. For the same compound, the TGI (IGROV1 ovarian) was 4.99 µM, the GI50 (HOP-92 NSCLC) was 0.382 µM and the TGI (HOP-92 NSCLC) was > 100 µM. The GI50 (SW-620 colon) was 6.78 µM, the TGI (SW-620 colon) was 52.2 µM and the GI50 (KM12 colon) was 5.47 µM. The TGI (KM12 colon) was 24.1 µM, the GI50 (NCI-H460 lung) was 2.92 µM and the TGI (NCI-H460 lung) was 43.4 µM. The GI50 (TK-10 renal) was 1.95 µM, the TGI (TK-10 renal) was 17.7 µM and the GI50 (SK-OV-3 ovarian) was 1.27 µM. It also gave a TGI (SK-OV-3 ovarian) of 10.7 µM, a GI50 (HCT-116 colon) of 3.29 µM and a TGI (HCT-116 colon) of 21.4 µM. For the same compound, the GI50 (NCI-H522 lung) was 3.31 µM, the TGI (NCI-H522 lung) was 22.3 µM and the GI50 (SF-539 CNS) was 2.13 µM. It also gave a TGI (SF-539 CNS) of 12.7 µM, a GI50 (T-47D breast) of 0.228 µM and a TGI (T-47D breast) of 1.44 µM. The GI50 (HOP-62 NSCLC) was 12.5 µM, the TGI (HOP-62 NSCLC) was > 100 µM and the GI50 (NCI/ADR-RES ovarian) was 4.87 µM. It also gave a TGI (NCI/ADR-RES ovarian) of 95.4 µM, a GI50 (NCI-H23 lung) of 8 µM and a TGI (NCI-H23 lung) of 94.6 µM.

Reference: PubChem BioAssay (NCI)
